Results on 11 molecules are retold here after patent US20240400584A1, “COMPOUNDS AND METHODS FOR MODULATING SPLICING” (REMIX THERAPEUTICS INC., priority 2021, published 2024).

The test system of experiment [1] is MYB. Briefly: Gene panel canonical junction qPCR assay, MYB CJ mRNA (Table 7). Format: cell-based. Particulars: Homo sapiens, read-out: MYB CJ mRNA decrease IC50. The procedure: (§1) Compounds described herein were used to modulate RNA transcript abundance in cells. The expression of a target mRNA was measured by detecting the formation of an exon-exon junction in the canonical transcript (CJ). A compound mediated exon-inclusion event was detected by observing an increase in formation OF A new junction with an alternative exon (AJ). Real-time qPCR assays were used to detect these splicing switches and interrogate the potency of various compounds towards different target Genes. A high-throughput real time quantitative PCR (RT-qPCR) assay was developed to measure these two isoforms of the mRNA (CJ and AJ) for exemplary genes, such as HTT, SMN2, and MYB, together with a control housekeeping gene, GAPDH or GUSB or PPIA, used for normalization. Briefly, the A673 or K562 cell line was treated with various compounds described herein (e.g., compounds of Formula (i)). After treatment, the levels of the HTT, MYB, or SMN2 mRNA targets were determined from each sample of cell lysate by cDNA synthesis followed by qPCR.
(§2) The data analysis was performed by first determining the ΔCt vs the housekeeper gene. This ΔCt was then normalized against the DMSO control (ΔΔCt) and converted to RQ (relative quantification) using the 2^(−ΔΔCt) equation. The RQ were then converted to a percentage response by arbitrarily setting an assay window of 3.5 and 4.0 ΔCt for HTT-CJ and MYB-CJ respectively and an assay window of 9 and 3 ΔCt for HTT-AJ and MYB-AJ in 96 well format (50,000 K562 cells/well and 15,000 A673 cells per well) and an assay window of 3 and 4 ΔCt for HTT-CJ and MYB-CJ respectively and an assay window of 5 and 3 ΔCt for HTT-AJ and MYB-AJ respectively in 384 well format (8,000 K562 cells/well example). […] The percentage response was then fitted to the 4 parametric logistic equation to evaluate the concentration dependence of compound treatment. The increase in AJ mRNA is reported as AC50 (compound concentration having 50% response in AJ increase) while the decrease in CJ mRNA levels is reported as IC50 (compound concentration having 50% response in CJ decrease).
(§3) Additional studies were carried out for a larger panel of genes using the protocol provided above. The junction between flanking upstream and downstream exons was used to design canonical junction qPCR assays. At least one of the forward primer, reverse primer or the CY5-labeled 5′ nuclease probe (with 3′ quencher such as ZEN/Iowa Black FQ) was designed to overlap with the exon junction to capture the CJ mRNA transcript. BLAST was used to confirm the specificity of the probeset and parameters such as melting temperature, GC content, amplicon size, and primer dimer formation are considered during their design. Data for the decrease in CJ mRNA levels for four exemplary genes (HTT, SMN2, MYB, and Target C) analyzed in this panel are reported as IC50 (compound concentration having 50% response in CJ decrease).

Experiment [2] has as its system SMN2. Briefly: Gene panel canonical junction qPCR assay, SMN2 CJ mRNA (Table 7). Format: cell-based. The settings on record: Homo sapiens, read-out: SMN2 CJ mRNA decrease IC50. The procedure: as §1, §2, §3
Experiment [3] concerns Target C. Briefly: Gene panel canonical junction qPCR assay, Target C CJ mRNA (Table 7). Format: cell-based, human. Particulars: Homo sapiens, read-out: Target C CJ mRNA decrease IC50. The procedure:
as §1, §2, §3

The subject of experiment [4] is MYB. The experiment in a line: RT-qPCR splicing assay, MYB AJ/CJ mRNA. Format: cell-based. The settings on record: Homo sapiens, A673 or K562 cells, 24 hours; for IC50: decrease in canonical junction mRNA; for AC50: increase in alternative junction mRNA. The procedure:
as §1
(§4) The A673 cell line was cultured in DMEM with 10% FBS. Cells were diluted with full growth media and plated in a 96-well plate (15,000 cells in 100 ul media per well). The plate was incubated at 37° C. with 5% CO2 for 24 hours to allow cells to adhere. An 11-point 3-fold serial dilution of the compounds was made in DMSO then diluted in media in an intermediate plate. Compounds were transferred from the intermediate plate to the cell plate with the top dose at a final concentration of 10 uM in the well. Final DMSO concentration was kept at or below 0.25%. The cell plate was returned to the incubator at 37° C. with 5% CO2 for an additional 24 hours.
(§5) The K562 cell line was cultured in IMDM with 10% FBS. For K562, cells were diluted with full growth media and plated in either a 96-well plate (50,000 cells in 50 uL media per well) or a 384-well plate (8,000-40,000 cells in 45 uL media per well). An 11-point 3-fold serial dilution of the compounds were made in DMSO then diluted in media in an intermediate plate. Compound was transferred from the intermediate plate to the cell plate with the top dose at a final concentration of 10 uM in the well. Final DMSO concentration was kept at or below 0.25%. Final volume was 100 uL for 96-well plate and 50 uL for 384-well plate. The cell plate was then placed in an incubator at 37° C. with 5% CO2 for 24 hours.
(§6) The cells were then gently washed with 50 uL-100 uL Cold Pbs before proceeding to addition of lysis buffer. 30 uL-50 μL of room temperature lysis buffer with DNAse I (and optionally RNAsin) was added to each well. Cells were shaken/mixed thoroughly at room temperature for 5-10 minutes for lysis to take place and then 3 uL-5 μL of room temperature stop solution was added and wells were shaken/mixed again. After 2-5 minutes, the cell lysate plate was transferred to ice for RT-qPCR reaction setup. The lysates could also be frozen at −80° C. for later use.
(§7) In some cases, a direct lysis buffer was used. an appropriate volume of 3× lysis buffer (10 mM tRis, 150 mM NaCl, 1.5%-2.5% Igepal and 0.1-1 U/uL RNAsin, pH 7.4) was directly added to either K562 or A673 cells in media and mixed by pipetting 3 times. The plates were then incubated at room temperature with shaking/rocking for 20-50 minutes to allow for lysis to take place. After this time, the cell lysate plate was transferred to ice to set up for the RT-qPCR reactions. The lysates could also be frozen at −80° C. for later use.
(§8) To set up 10 uL RT-QpcR reactions, cell lysates were transferred to 384-well qPCR plates containing the master mix according to the table below. The plates were sealed, gently vortexed, and spun down before the run. The volumes were adjusted accordingly in some instances where the reaction was carried in 20 µL. The table below summarizes the components of the RT-qPCR reactions:
(§9) The RT-qPCR reaction was performed using a QuantStudio (ThermoFisher) under the following fast cycling conditions. […]

In experiment [5] the test system is HTT. Briefly: Gene panel canonical junction qPCR assay, HTT CJ mRNA (Table 7). Format: cell-based, human. The settings on record: Homo sapiens, read-out: HTT CJ mRNA decrease IC50. As to the method:
as §1, §2, §3

Experiment [6] relates to HTT. The experiment in a line: RT-qPCR splicing assay, HTT AJ/CJ mRNA. Format: cell-based, human. Particulars: Homo sapiens, 24 h, A673 or K562 cells; for IC50: decrease in canonical junction mRNA; for AC50: increase in alternative junction mRNA. The procedure:
as §1, §4, §5, §6, §7, §8, §9

For the molecule `COc1cc(-c2ccc3c(c2)COc2nc(N4CCC(NCC5CC5)C4)ccc2-3)cnn1` (stereo not shown) [Compound 264, N-(cyclopropylmethyl)-1-[8-(6-methoxypyridazin-4-yl)-6H-isochromeno [3,4-b]378yrrolid-3-yl]378yrrolidine-3-amine], the IC50 is 1000 to 10000 nM in experiment [1]; 100 to 1000 nM in experiment [2]; 100 to 1000 nM in experiment [3]; 1000 to 10000 nM in experiment [4]; 100 to 1000 nM in experiment [5]; 100 to 1000 nM in experiment [6]. Also, the AC50 in experiment [4] was in the range of 1000 to 10000 nM; in experiment [6] it was 100 to 1000 nM.
`CC1(C)CC(Oc2ccc3c(n2)OCc2cc(-c4cn[nH]c4)c(F)cc2-3)CC(C)(C)N1` [Compound 234]: the IC50 in experiment [1] was 100 to 1000 nM; in experiment [2] it was less than 100 nM; in experiment [3] it was 100 to 1000 nM; in experiment [4], 100 to 1000 nM; in experiment [5], less than 100 nM; in experiment [6], less than 100 nM. Further, the AC50 in experiment [4] is 100 to 1000 nM; in experiment [6], less than 100 nM.
As for `CN(c1ncc2c(n1)OCc1cc(-c3cnnc(O)c3)ccc1-2)C1CC(C)(C)NC(C)(C)C1` [Compound 277, 5-{3-[methyl(2,2,6,6-tetramethylpiperidin-4-yl)amino]-6H-isochromeno[3,4-d]pyrimidin-8-yl}pyridazin-3-ol], the IC50 in experiment [1] fell in the range of 1000 to 10000 nM; in experiment [2] it was 100 to 1000 nM; in experiment [3] it was 1000 to 10000 nM; in experiment [4] it was 1000 to 10000 nM; in experiment [5], 100 to 1000 nM; in experiment [6], 100 to 1000 nM. Besides, the results for the AC50 in experiment [4] and in experiment [6] were 1000 to 10000 nM and 100 to 1000 nM, respectively.
For `c1cnn(-c2ccc3c(c2)COc2nc(N4CCC5(CC4)CNC5)ccc2-3)c1` [Compound 169], the IC50 in experiment [1], in experiment [2], in experiment [3], in experiment [4], in experiment [5] and in experiment [6] was 100 to 1000 nM each time. For the same molecule, the AC50 in experiment [4] and in experiment [6] was 100 to 1000 nM throughout.
Take `CC1(C)CC(Oc2ccc3c(n2)OCc2cc(-c4cn[nH]c4)ccc2-3)CC(C)(C)N1` [Compound 219, 8-(1H-pyrazol-4-yl)-3-((2,2,6,6-tetramethylpiperidin-4-yl)oxy)-6H-isochromeno [3,4-b] pyridine]: the IC50 in experiment [1], in experiment [2], in experiment [3], in experiment [4], in experiment [5] and in experiment [6] was 100 to 1000 nM in each case. In addition, the AC50 was more than 10000 nM in experiment [4] and 100 to 1000 nM in experiment [6].
Turning to `c1cnn(-c2ccc3c(c2)OCCc2nc(N[C@@H]4C[C@H]5CC[C@@H](C4)N5)ccc2-3)c1` [Compound 136], the IC50 in experiment [1], in experiment [2], in experiment [3], in experiment [4], in experiment [5] and in experiment [6] was more than 10000 nM throughout. In addition, the AC50 in experiment [4] and in experiment [6] was more than 10000 nM each time.
On to `COc1cc(-c2ccc3c(c2)COc2nc(N4CC[C@@H](NC(C)(C)C)C4)ncc2-3)cnn1` [Compound 278], for which the IC50 in experiment [1] was 100 to 1000 nM; in experiment [2], less than 100 nM; in experiment [3], 100 to 1000 nM; in experiment [4] it was 100 to 1000 nM; in experiment [5], less than 100 nM; in experiment [6], less than 100 nM. In addition, the concentration at half-maximal activity (AC50) in experiment [4] and in experiment [6] was 100 to 1000 nM in each case.
With `[2H]C([2H])([2H])N(c1ccc2c(n1)OCc1cc(-n3cccn3)ccc1-2)[C@@H]1C[C@H]2CC[C@@H](C1)N2` [Compound 201], the IC50 is 100 to 1000 nM in experiment [1]; less than 100 nM in experiment [2]; 100 to 1000 nM in experiment [3]; 100 to 1000 nM in experiment [4]; 100 to 1000 nM in experiment [5]; 100 to 1000 nM in experiment [6]. The AC50 in experiment [4] was 1000 to 10000 nM; in experiment [6], 100 to 1000 nM.
Consider `CC(C)Oc1cc(-c2ccc3c(c2)COc2nc(N4CCC(NC(C)(C)C)C4)ccc2-3)cnn1` (stereo not shown) [Compound 263, N-tert-butyl-1-[8-(6-isopropoxypyridazin-4-yl)-6H-isochromeno[3,4-b]pyridin-3-yl]pyrrolidin-3-amine], for which the IC50 in experiment [1], in experiment [2], in experiment [3], in experiment [4], in experiment [5] and in experiment [6] was more than 10000 nM in each case. Besides, the AC50 in experiment [4] and in experiment [6] was more than 10000 nM each time.
As for `CC(C)(C)N[C@H]1CCN(c2ccc3c(n2)OCc2cc(-c4cn[nH]c4)ccc2-3)C1` [Compound 258, (3S)—N-tert-butyl-1-[8-(1H-pyrazol-4-yl)-6H-isochromeno[3,4-b]pyridin-3-yl]pyrrolidin-3-amine], the IC50 was in the range of 1000 to 10000 nM in experiment [1]; 100 to 1000 nM in experiment [2]; 100 to 1000 nM in experiment [3]; 1000 to 10000 nM in experiment [4]; 100 to 1000 nM in experiment [5]; 100 to 1000 nM in experiment [6]. Moreover, the AC50 in experiment [4] and in experiment [6] was 100 to 1000 nM in each case.
Take `COc1cc(-c2ccc3c(c2)COc2nc(N4CC[C@H](NC(C)(C)C)C4)ncc2-3)cnn1` [Compound 279]: the concentration for half-maximal inhibition (IC50) fell in the range of 1000 to 10000 nM in experiment [1]; 100 to 1000 nM in experiment [2]; 1000 to 10000 nM in experiment [3]; 1000 to 10000 nM in experiment [4]; 100 to 1000 nM in experiment [5]; 100 to 1000 nM in experiment [6]. In addition, the values for the AC50 in experiment [4] and in experiment [6] were 1000 to 10000 nM and 100 to 1000 nM, respectively.
